In US20250332300A1 (priority 2024, published 2025):
Where a name gives a salt, the structure may show the parent alone. Read-outs that look alike come from different tables or passages of the source. Starred links: 1 amine or outer side, 2 acyl side, 3 side chain; linkers in the order of their positions; H or OH if unused. Positions of bridges follow the written chain, without caps; N, C: chain ends. Non-standard residues stand in square brackets, D forms with d. Residues, ends and D or L forms follow the SMILES beside them. Nle(4-yne,6-yl) = O=C([C@H](CC#CC[*:3])N[*:1])[*:2]; Trp(5-OH) = N[C@@H](Cc1c[nH]c2ccc(O)cc12)C(=O)O; NMePhe(4-F) = CN[C@@H](Cc1ccc(F)cc1)C(=O)O; X1 = O=C([C@H](Cc1cnn2ccccc12)N[*:1])[*:2]; NMehPhe = CN[C@@H](CCc1ccccc1)C(=O)O; NMeE = CN[C@@H](CCC(=O)O)C(=O)O; Gly(cPr) = N[C@H](C(=O)O)C1CC1; NMeDap = CN[C@@H](CN)C(=O)O; NMeC = CN[C@@H](CS)C(=O)O; NMeS = CN[C@@H](CO)C(=O)O; Dap = NC[C@H](N)C(=O)O

Legend:
Type in all cases: binding
[1] = target: T1, human HER2 (23-652) (Homo sapiens, UniProt P04626); assay: Surface plasmon resonance (SPR) for assessment of peptide affinity, human HER2; design: towards human HER2 (23-652) and mouse HER2 (23-653); made in house
In short: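 Binding kinetics fitted from sensorgrams with 280 s peptide association then 3000 s dissociation (30 uL/min), using HER2 (23-652) either directly immobilized (SA/CM5) or anti-Fc-captured; 3 M magnesium chloride used for regeneration.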

[2] = target: T2, mouse HER2 (23-653) (Mus musculus, UniProt P70424); assay: Surface plasmon resonance (SPR) for assessment of peptide affinity, mouse HER2; design: mouse HER2 (23-653) using a Cy5 labeled peptide as a probe; made in house
Excerpt: Each protein was immobilized either onto a SA sensorchip (Cytiva, BR-1005-31) or CM5 sensorchip (Cytiva, BR-1005-30) to a density of 800-2000 RU.

[3] = target: T1, human HER2 (23-652); assay: TR-FRET competition assay for peptide potency, human HER2; design: towards human HER2 (23-652) and mouse HER2 (23-653); made in house; host or cells: mammalian cells
[4] = target: T2, mouse HER2 (23-653); assay: TR-FRET competition assay for peptide potency, mouse HER2; design: mouse HER2 (23-653) using a Cy5 labeled peptide as a probe; made in house; host or cells: mammalian cells
[5] = huHER2 TR-FRET IC50, TR-FRET competition with Cy5 labeled peptide probe, 0.1 nM human HER2, 24 h incubation
[6] = huHER2 TR-FRET IC50, recalculated value achieved after further repetition, value in parentheses (**): recalculated after further repetition
[7] = SPR, mouse HER2 extracellular domain, 25° C., 1:1 binding model, read-out: moHER2-SPR-ONC KD
[8] = TR-FRET competition with Cy5 labeled peptide probe, 0.1 nM mouse HER2, 24 h incubation, read-out: moHER2 TR-FRET IC50

| Kd ([1]; SPR, human HER2 extracellular domain, 25° C., 1:1 binding model, read-out: huHER2-SPR-ONC KD) [nM] | IC50 ([3]; read-out: huHER2 TR-FRET IC50) [nM] | SMILES | Kd [1] [nM] | Kd [2] [nM] | IC50 [3, 5] [nM] | IC50 [3, 6] [nM] | IC50 ([4]; moHER2 TR-FRET IC50, TR-FRET competition with Cy5 labeled peptide probe, 0.1 nM mouse HER2, 24 h incubation) [nM] | IC50 ([4]; moHER2 TR-FRET IC50, recalculated value achieved after further repetition, value in parentheses (**): recalculated after further repetition) [nM] | Kd [2, 7] [nM] | IC50 [4, 8] [nM] |
| --- | --- | --- | --- | --- | --- | --- | --- | --- | --- | --- |
| – | – | CN1C(=O)[C@H](CO)NC(=O)[C@H](Cc2ccc(O)cc2)NC(=O)[C@@H](N)CNC(=O)CC[C@@H](C(=O)N(C)[C@@H](Cc2ccc(F)cc2)C(N)=O)N(C)C(=O)[C@H](C2CC2)NC(=O)[C@H](Cc2c[nH]c3ccccc23)NC(=O)[C@H](Cc2c[nH]c3ccc(O)cc23)NC(=O)[C@H](CO)N(C)C(=O)[C@@H]1CCc1ccccc1 [Example A34, (3S,6S,9S,12S,15S,18S,21S,24S,30S)-6-((1H-indol-3-yl)methyl)-24-amino-N-((S)-1-amino-3-(4-fluorophenyl)-1-oxopropan-2-yl)-3-cyclopropyl-9-((5-hydroxy-1H-indol-3-yl)methyl)-21-(4-hydroxybenzyl)-12,18-bis(hydroxymethyl)-N,1,13,16-tetramethyl-2,5,8,11,14,17,20,23,27-nonaoxo-15-phenethyl-1,4,7,10,13,16,19,22,26-nonaazacyclotriacontane-30-carboxamide TFA salt] (H-[Dap]YS[NMehPhe][NMeS][Trp(5-OH)]W[Gly(cPr)][NMeE][NMePhe(4-F)]-NH2; lactam 1-9) | 68 | 64 | 158 | 118 | 296 | 175 | – | – |
| – | – | CN1C(=O)[C@H](CO)NC(=O)[C@H](Cc2ccc(O)cc2)NC(=O)[C@@H](N)CC#CCSC[C@@H](C(=O)N(C)[C@@H](Cc2ccc(F)cc2)C(N)=O)N(C)C(=O)[C@H](C2CC2)NC(=O)[C@H](Cc2c[nH]c3ccccc23)NC(=O)[C@H](Cc2c[nH]c3ccc(O)cc23)NC(=O)[C@H](CO)N(C)C(=O)[C@@H]1CCc1ccccc1 [Example A52, (3R,6S,9S,12S,15S,18S,21S,24S,27S)-9-((1H-indol-3-yl)methyl)-27-amino-N—((S)-1-amino-3-(4-fluorophenyl)-1-oxopropan-2-yl)-6-cyclopropyl-12-((5-hydroxy-1H-indol-3-yl)methyl)-24-(4-hydroxybenzyl)-15,21-bis(hydroxymethyl)-N,4,16,19-tetramethyl-5,8,11,14,17,20,23,26-octaoxo-18-phenethyl-1-thia-4,7,10,13,16,19,22,25-octaazacyclohentriacont-29-yne-3-carboxamide TFA salt] (H-[Nle(4-yne,6-yl)]YS[NMehPhe][NMeS][Trp(5-OH)]W[Gly(cPr)][NMeC][NMePhe(4-F)]-NH2; thioether 1-9) | 997 | – | 427 | 567 | – | – | 570 | > 1000 |
| > 6000 | > 1000 | CC(=O)N[C@H]1CCC(=O)NC[C@@H](C(=O)N(C)[C@@H](Cc2ccc(F)cc2)C(N)=O)N(C)C(=O)[C@H](C2CC2)NC(=O)[C@H](Cc2cnn3ccccc23)NC(=O)[C@H](Cc2c[nH]c3ccc(O)cc23)NC(=O)[C@H](CO)N(C)C(=O)[C@H](CCc2ccccc2)N(C)C(=O)[C@H](CO)NC(=O)[C@H](Cc2ccc(O)cc2)NC1=O [Example A21, (3S,6S,9S,12S,15S,18S,21S,24S,27S)-27-acetamido-N-((S)-1-amino-3-(4-fluorophenyl)-1-oxopropan-2-yl)-6-cyclopropyl-12-((5-hydroxy-1H-indol-3-yl)methyl)-24-(4-hydroxybenzyl)-15,21-bis(hydroxymethyl)-N,4,16,19-tetramethyl-5,8,11,14,17,20,23,26,30-nonaoxo-18-phenethyl-9-(pyrazolo[1,5-a]pyridin-3-ylmethyl)-1,4,7,10,13,16,19,22,25-nonaazacyclotriacontane-3-carboxamide] (Ac-EYS[NMehPhe][NMeS][Trp(5-OH)][X1][Gly(cPr)][NMeDap][NMePhe(4-F)]-NH2; lactam 1-9) | – | – | – | – | – | – | > 6000 | > 1000 |
